Publication PMC12118597 (Science Advances, 2025)
Where two headings read alike, the source gives them in different places.

Key:
[1] = molecular target: T1, SARS-CoV-2 NSP3 macrodomain (Mac1) (Severe acute respiratory syndrome coronavirus 2, UniProt P0DTD1); assay: biochemical; format: binding; conditions: for detectable binding at 200 μM in the HTRF assay: result in words
[2] = molecular target: T1, SARS-CoV-2 NSP3 macrodomain (Mac1); format: binding; conditions: for 1-BDC: PanDDA background density correction factor; for PanDDA run, overall: Hit / PanDDA run, overall: Modeled / PanDDA run, DMSO background map: 1-BDC / PanDDA run, DMSO background map: Hit: crystal soak 10 mM; for PanDDA run, overall: Hit / PanDDA run, overall: Modeled: P43 crystal form; for Total number of conformations: ligand conformations modeled in the crystal structure; for 2*(1-BDC) (%): occupancy estimate from PanDDA; for Refined ligand occupancy (%): refined crystallographic occupancy
[3] = HTRF binding curve, SARS-CoV-2 Mac1
[4] = SARS CoV-2 macrodomain HTRF assay, dose-response
[5] = TRUE = crystal structure with ligand obtained
[6] = site of ligand in X-ray crystal structure
[7] = ligand-bound crystal structure obtained (TRUE)
[8] = site occupied in X-ray crystal structure
[9] = SARS CoV-2 macrodomain HTRF assay, single dose concentration 200 μM, read-out: Average % competition
[10] = compound at 200 μM, mean of three to four technical replicates, read-out: % competition at 200 μM (preliminary HTRF screen)

OCC(Nc1ncnc2[nH]ccc12)C1CC1 (stereo not drawn) [AVI-3651]
Hill slope [1, 3]: 1.2 | Hill slope [1, 4]: 1.2 | Occupancy difference (refined_occupancy - 2*(1-BDC)) [2]: 0 | 1-BDC [2]: 0.18 | X-ray crystal structure [2, 5]: TRUE | PanDDA run, overall: Hit [2]: TRUE | PanDDA run, overall: Modeled [2]: TRUE | PanDDA run, DMSO background map: 1-BDC [2]: 0.18 | PanDDA run, DMSO background map: Hit [2]: TRUE | Total number of conformations [2]: 1 | 2*(1-BDC) (%) [2]: 36% | Refined ligand occupancy (%) [2]: 36% | Binding site [2, 6]: Adenosine

O[C@H]1CC[C@@H]2CCN(c3ncnc4[nH]ccc34)[C@@H]21 [AVI-3664]
Hill slope [1, 3]: 1.2 | Hill slope [1, 4]: 1.2 | Occupancy difference (refined_occupancy - 2*(1-BDC)) [2]: 0 | 1-BDC [2]: 0.16 | PanDDA run, overall: Hit [2]: TRUE | PanDDA run, overall: Modeled [2]: TRUE | PanDDA run, DMSO background map: 1-BDC [2]: 0.16 | PanDDA run, DMSO background map: Hit [2]: TRUE | Total number of conformations [2]: 1 | X-ray crystal structure [2, 7]: TRUE | 2*(1-BDC) (%) [2]: 32% | Refined ligand occupancy (%) [2]: 32% | Binding site [2, 8]: Adenosine

CCC(O)[C@H]1CCCN1c1ncnc2[nH]ccc12 (stereo partly drawn) [AVI-3666]
Hill slope [1, 3]: 1.3 | Hill slope [1, 4]: 1.3 | Occupancy difference (refined_occupancy - 2*(1-BDC)) [2]: 10 | 1-BDC [2]: 0.3 | PanDDA run, overall: Hit [2]: TRUE | PanDDA run, overall: Modeled [2]: TRUE | PanDDA run, DMSO background map: 1-BDC [2]: 0.3 | PanDDA run, DMSO background map: Hit [2]: TRUE | Total number of conformations [2]: 1 | X-ray crystal structure [2, 7]: TRUE | 2*(1-BDC) (%) [2]: 60% | Refined ligand occupancy (%) [2]: 70% | Binding site [2, 8]: Adenosine

O=C(O)C(F)(F)F.OCC1(Nc2ncnc3[nH]ccc23)CCC1 [AVI-3670]
Hill slope [1, 3]: 1.2 | Hill slope [1, 4]: 1.2 | Occupancy difference (refined_occupancy - 2*(1-BDC)) [2]: 0 | 1-BDC [2]: 0.18 | X-ray crystal structure [2, 5]: TRUE | PanDDA run, overall: Hit [2]: TRUE | PanDDA run, overall: Modeled [2]: TRUE | PanDDA run, DMSO background map: 1-BDC [2]: 0.18 | PanDDA run, DMSO background map: Hit [2]: TRUE | Total number of conformations [2]: 2 | 2*(1-BDC) (%) [2]: 36% | Refined ligand occupancy (%) [2]: 36% | Binding site [2, 6]: Adenosine

CN(C)CC(CO)Nc1ncnc2[nH]ccc12 (stereo not drawn) [AVI-3671]
detectable binding at 200 μM in the HTRF assay [1]: neither had detectable binding | Occupancy difference (refined_occupancy - 2*(1-BDC)) [2]: 0 | 1-BDC [2]: 0.17 | X-ray crystal structure [2, 5]: TRUE | PanDDA run, overall: Hit [2]: TRUE | PanDDA run, overall: Modeled [2]: TRUE | PanDDA run, DMSO background map: 1-BDC [2]: 0.17 | PanDDA run, DMSO background map: Hit [2]: TRUE | Total number of conformations [2]: 1 | 2*(1-BDC) (%) [2]: 34% | Refined ligand occupancy (%) [2]: 34% | Binding site [2, 6]: Adenosine

OCC(CN1CCCCC1)Nc1ncnc2[nH]ccc12 (stereo not drawn) [AVI-3677]
detectable binding at 200 μM in the HTRF assay [1]: neither had detectable binding | Occupancy difference (refined_occupancy - 2*(1-BDC)) [2]: 0 | 1-BDC [2]: 0.21 | X-ray crystal structure [2, 5]: TRUE | PanDDA run, overall: Hit [2]: TRUE | PanDDA run, overall: Modeled [2]: TRUE | PanDDA run, DMSO background map: 1-BDC [2]: 0.21 | PanDDA run, DMSO background map: Hit [2]: TRUE | Total number of conformations [2]: 1 | 2*(1-BDC) (%) [2]: 42% | Refined ligand occupancy (%) [2]: 42% | Binding site [2, 6]: Adenosine

O=C(O)C(F)(F)F.OCC1(Nc2ncnc3[nH]ccc23)CCCC1 [AVI-3692]
Hill slope [1, 3]: 1.3 | Hill slope [1, 4]: 1.3 | Occupancy difference (refined_occupancy - 2*(1-BDC)) [2]: -24 | 1-BDC [2]: 0.22 | X-ray crystal structure [2, 5]: TRUE | PanDDA run, overall: Hit [2]: TRUE | PanDDA run, overall: Modeled [2]: TRUE | PanDDA run, DMSO background map: 1-BDC [2]: 0.22 | PanDDA run, DMSO background map: Hit [2]: TRUE | Total number of conformations [2]: 1 | 2*(1-BDC) (%) [2]: 44% | Refined ligand occupancy (%) [2]: 20% | Binding site [2, 6]: Adenosine

CCC(CC)(CO)Nc1ncnc2[nH]ccc12 [AVI-3695]
Hill slope [1, 3]: 1.3 | Hill slope [1, 4]: 1.3 | Occupancy difference (refined_occupancy - 2*(1-BDC)) [2]: 6 | 1-BDC [2]: 0.12 | X-ray crystal structure [2, 5]: TRUE | PanDDA run, overall: Hit [2]: TRUE | PanDDA run, overall: Modeled [2]: TRUE | PanDDA run, DMSO background map: 1-BDC [2]: 0.12 | PanDDA run, DMSO background map: Hit [2]: TRUE | Total number of conformations [2]: 2 | 2*(1-BDC) (%) [2]: 24% | Refined ligand occupancy (%) [2]: 30% | Binding site [2, 6]: Adenosine

CCC(C)(CO)Nc1ncnc2[nH]ccc12 (stereo not drawn) [AVI-3697]
Hill slope [1, 3]: 1.2 | Hill slope [1, 4]: 1.2 | Occupancy difference (refined_occupancy - 2*(1-BDC)) [2]: 18 | 1-BDC [2]: 0.16 | X-ray crystal structure [2, 5]: TRUE | PanDDA run, overall: Hit [2]: TRUE | PanDDA run, overall: Modeled [2]: TRUE | PanDDA run, DMSO background map: 1-BDC [2]: 0.16 | PanDDA run, DMSO background map: Hit [2]: TRUE | Total number of conformations [2]: 1 | 2*(1-BDC) (%) [2]: 32% | Refined ligand occupancy (%) [2]: 50% | Binding site [2, 6]: Adenosine

CC1(C)C[C@@H](CO)N(c2ncnc3[nH]ccc23)C1.O=C(O)C(F)(F)F [AVI-3704]
Hill slope [1, 3]: 1.1 | Hill slope [1, 4]: 1.1 | inhibition at 200 µM [1, 9]: 90% | inhibition at 200 µM [1, 10]: 90% | Occupancy difference (refined_occupancy - 2*(1-BDC)) [2]: 0 | 1-BDC [2]: 0.33 | PanDDA run, overall: Hit [2]: TRUE | PanDDA run, DMSO background map: 1-BDC [2]: 0.33 | PanDDA run, DMSO background map: Hit [2]: TRUE | Total number of conformations [2]: 1 | X-ray crystal structure [2, 7]: TRUE | 2*(1-BDC) (%) [2]: 66% | Refined ligand occupancy (%) [2]: 66% | Binding site [2, 8]: Adenosine

OCC1CC2(CCCC2)CN1c1ncnc2[nH]ccc12 (stereo not drawn) [AVI-3708]
Hill slope [1, 3]: 1.1 | Hill slope [1, 4]: 1.1 | inhibition at 200 µM [1, 9]: 90% | inhibition at 200 µM [1, 10]: 90% | Occupancy difference (refined_occupancy - 2*(1-BDC)) [2]: 0 | 1-BDC [2]: 0.32 | PanDDA run, overall: Hit [2]: TRUE | PanDDA run, DMSO background map: 1-BDC [2]: 0.32 | PanDDA run, DMSO background map: Hit [2]: TRUE | Total number of conformations [2]: 1 | X-ray crystal structure [2, 7]: TRUE | 2*(1-BDC) (%) [2]: 64% | Refined ligand occupancy (%) [2]: 64% | Binding site [2, 8]: Adenosine

OCC1C2CCC(C2)N1c1ncnc2[nH]ccc12 (stereo not drawn) [AVI-3713]
Hill slope [1, 3]: 1.1 | Hill slope [1, 4]: 1.1 | Occupancy difference (refined_occupancy - 2*(1-BDC)) [2]: 0 | 1-BDC [2]: 0.29 | PanDDA run, overall: Hit [2]: TRUE | PanDDA run, DMSO background map: 1-BDC [2]: 0.29 | PanDDA run, DMSO background map: Hit [2]: TRUE | Total number of conformations [2]: 1 | X-ray crystal structure [2, 7]: TRUE | 2*(1-BDC) (%) [2]: 58% | Refined ligand occupancy (%) [2]: 58% | Binding site [2, 8]: Adenosine

OC[C@@H]1C[C@@H]2CCC[C@@H]2N1c1ncnc2[nH]ccc12 [AVI-3720]
Hill slope [1, 3]: 1.2 | Hill slope [1, 4]: 1.2 | Occupancy difference (refined_occupancy - 2*(1-BDC)) [2]: 0 | Phe132 loop open state [2]: TRUE | 1-BDC [2]: 0.29 | PanDDA run, overall: Hit [2]: TRUE | PanDDA run, DMSO background map: 1-BDC [2]: 0.29 | PanDDA run, DMSO background map: Hit [2]: TRUE | Total number of conformations [2]: 1 | X-ray crystal structure [2, 7]: TRUE | 2*(1-BDC) (%) [2]: 58% | Refined ligand occupancy (%) [2]: 58% | Binding site [2, 8]: Adenosine
